Source: ChEMBL document CHEMBL3217697, “The discovery of a novel prototype small molecule TLR7 agonist for the treatment of hepatitis C virus infection” (Medchemcomm, 2011)
Activity calls are given as the source filed them. No cut-off for these calls is given here.

Columns and labels:
[1] = Octanol-neutral aqueous buffer partition coefficient, log D of the compound at pH 7.4; type: physicochemical
[2] = Intrinsic clearance in human liver microsomes; type: ADME; conditions: read-out: CLH
[3] = test system: Hepatitis C virus; assay: Antiviral activity against Hepatitis C virus infected in human HuH7 cells; type: functional, organism-based; conditions: Hepacivirus hominis; Huh-7
[4] = test system: Mus musculus; assay: Stimulation of IFN-alpha production in po dosed CD-1 mouse; type: functional, organism-based
[5] = Clearance in dog at 0.1 mg/kg, iv; type: ADME, organism-based, Canis lupus familiaris; set-up: dose 0.1 mg/kg, route intravenous; conditions: in vivo
[6] = target: Acetylcholinesterase (Homo sapiens) (UniProt P22303); assay: Inhibition of human acetylcholinesterase at 10 uM relative to control
[7] = Oral bioavailability in rat at 2 mg/kg administered as nano suspension; type: ADME, organism-based; conditions: in vivo
[8] = Volume of distribution at steady state in dog at 0.1 mg/kg, iv; type: ADME, organism-based, Canis lupus familiaris; set-up: dose 0.1 mg/kg, route intravenous; conditions: in vivo, read-out: Vdss
[9] = Oral bioavailability in rat at 2 mg/kg administered as solution; type: ADME, organism-based; conditions: in vivo
[10] = Clearance in rat at 1 mg/kg, iv; type: ADME, organism-based; set-up: dose 1 mg/kg, route intravenous; conditions: in vivo
[11] = Terminal half life in dog at 0.1 mg/kg, iv; type: ADME, organism-based, Canis lupus familiaris; set-up: dose 0.1 mg/kg, route intravenous; conditions: in vivo, read-out: beta t1/2 (converted)
[12] = Oral bioavailability in rat at 2 mg/kg administered as suspension; type: ADME, organism-based; conditions: in vivo
[13] = target: T1, Adenosine receptor A1 (Homo sapiens) (UniProt P30542); assay: Inhibition of adenosine A1 receptor (unknown origin) at 10 uM relative to control
T1 sequence (whole entry): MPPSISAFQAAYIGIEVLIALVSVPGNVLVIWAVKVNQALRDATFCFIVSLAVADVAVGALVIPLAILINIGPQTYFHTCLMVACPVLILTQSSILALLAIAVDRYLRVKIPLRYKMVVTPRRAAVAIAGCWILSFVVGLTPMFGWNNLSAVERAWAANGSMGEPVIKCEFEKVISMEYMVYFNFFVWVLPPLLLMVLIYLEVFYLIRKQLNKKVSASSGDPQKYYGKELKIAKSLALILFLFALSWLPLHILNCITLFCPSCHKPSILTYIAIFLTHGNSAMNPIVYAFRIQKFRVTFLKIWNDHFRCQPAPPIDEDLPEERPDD

[14] = Terminal half life in rat at 1 mg/kg, iv; type: ADME, organism-based; set-up: dose 1 mg/kg, route intravenous; conditions: in vivo, read-out: beta t1/2 (converted)
[15] = target: Adenosine receptor A2a (Homo sapiens) (UniProt P29274); assay: Inhibition of adenosine A2A receptor (unknown origin) at 10 uM relative to control
[16] = Volume of distribution at steady state in rat at 1 mg/kg, iv; type: ADME, organism-based; set-up: dose 1 mg/kg, route intravenous; conditions: in vivo, read-out: Vdss

Adenosine receptor A2a (Homo sapiens), sequence (P29274 whole entry): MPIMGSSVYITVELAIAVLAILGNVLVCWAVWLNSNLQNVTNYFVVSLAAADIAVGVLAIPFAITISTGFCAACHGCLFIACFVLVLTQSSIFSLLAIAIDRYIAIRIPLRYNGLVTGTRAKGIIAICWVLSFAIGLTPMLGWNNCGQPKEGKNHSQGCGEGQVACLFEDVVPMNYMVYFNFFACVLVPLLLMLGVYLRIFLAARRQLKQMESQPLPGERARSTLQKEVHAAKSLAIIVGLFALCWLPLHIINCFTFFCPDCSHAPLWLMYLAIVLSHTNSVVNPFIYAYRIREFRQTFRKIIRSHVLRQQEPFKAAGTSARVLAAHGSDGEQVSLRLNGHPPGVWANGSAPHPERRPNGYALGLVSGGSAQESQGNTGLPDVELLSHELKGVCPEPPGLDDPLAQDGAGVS
Acetylcholinesterase (Homo sapiens), sequence (P22303 whole entry): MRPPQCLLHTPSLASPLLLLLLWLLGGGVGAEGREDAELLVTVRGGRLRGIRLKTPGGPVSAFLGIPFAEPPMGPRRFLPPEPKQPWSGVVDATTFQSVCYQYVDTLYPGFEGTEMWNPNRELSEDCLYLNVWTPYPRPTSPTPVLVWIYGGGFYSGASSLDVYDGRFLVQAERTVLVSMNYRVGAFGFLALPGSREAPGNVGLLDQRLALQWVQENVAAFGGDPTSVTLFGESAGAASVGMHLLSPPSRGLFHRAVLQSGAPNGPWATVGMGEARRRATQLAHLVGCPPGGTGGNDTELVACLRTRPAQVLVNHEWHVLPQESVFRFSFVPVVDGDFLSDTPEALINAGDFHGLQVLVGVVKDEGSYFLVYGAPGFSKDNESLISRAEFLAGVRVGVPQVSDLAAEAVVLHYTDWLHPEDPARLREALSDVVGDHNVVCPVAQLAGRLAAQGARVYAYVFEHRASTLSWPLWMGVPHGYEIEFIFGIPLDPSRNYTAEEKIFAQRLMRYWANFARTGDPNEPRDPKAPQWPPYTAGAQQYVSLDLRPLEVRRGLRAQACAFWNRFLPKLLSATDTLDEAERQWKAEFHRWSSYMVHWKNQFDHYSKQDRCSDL

| SMILES | logD [1] | microsomal CLint [2] [µL/min/mg] | Activity [3] | other results |
| --- | --- | --- | --- | --- |
| O=c1[nH]c2cnc(C(F)(F)F)cc2n1Cc1ccccc1 | 3.1 | < 7 | – | – |
| Nc1nccc2c1[nH]c(=O)n2Cc1ccccc1 | 1.9 | < 7 | – | – |
| Cc1nc(N)c2sc(=O)n(Cc3ccccc3)c2n1 | – | – | inactive | – |
| O=c1[nH]n2c(O)nc(C3CC3)cc2c1Cc1ccccc1 | 1.7 | < 7 | inactive | – |
| Cc1nc(N)c2[nH]c(=O)n(Cc3ccccc3)c2c1C | 2.6 | < 7 | inactive | – |
| Cc1nc(N)c2nc(O)n(Cc3ccccc3)c2n1 | – | < 7 | inactive | – |
| Cc1cc2c([nH]c(=O)n2Cc2ccccc2)c(N)n1 | 2.3 | < 7 | inactive | – |
| Nc1nc(C(F)(F)F)cc2c1[nH]c(=O)n2Cc1ccccc1 | – | < 7 | – | EC50 [4]: 58 nM; clearance [5]: 6 mL/min/kg; inhibition [6]: 70%; bioavailability [7]: 71%; Vd [8]: 2.3 L/kg; bioavailability [9]: 48%; clearance [10]: 33 mL/min/kg; half-life [11]: 5.5 h; bioavailability [12]: 69%; inhibition [13]: 29%; half-life [14]: 1 h; inhibition [15]: 32%; Vd [16]: 2.7 L/kg |
| CC(C)c1cc2c([nH]c(=O)n2Cc2ccccc2)c(N)n1 | 3.1 | < 7 | – | – |
| Cc1nc(N)c2c(n1)N(Cc1ccccc1)C(=O)NC2 | 1.6 | 16 | inactive | – |
| COCCNc1nc(N)c2c(O)nn(Cc3ccccc3)c2n1 | – | – | inactive | – |
| Nc1cc(C2CC2)nc2c(Cc3ccccc3)c(=O)[nH]n12 | 1.6 | < 7 | inactive | – |
| Cc1nc(N)c2c(n1)N(Cc1ccccc1)C(=O)C2 | 2 | < 7 | inactive | – |
| Cc1cc(N)c2[nH]c(=O)n(Cc3ccccc3)c2n1 | 2.3 | < 7 | inactive | – |
| CCCc1cc2c([nH]c(=O)n2Cc2ccccc2)c(N)n1 | 3.1 | 14 | – | – |
